Measurements from US20150359854A1 (HUMAN MATRIX SCIENCES, LLC, priority 2012, published 2015).
Entries after “also recorded” stand apart in the source; their conditions may differ.

How the values were obtained:
[1] = system: human aortic SMCs (AoSMCs); assay: Immunocytochemistry and morphometry of elastic fibers in AoSMC cultures; assay type: cell-based; conditions: for effect of inhibitor on elastogenic effects of IGF-1: 10 nmol/L IGF-1, parallel AoSMC cultures; for effect of inhibitor on elastogenic effects of insulin (immunostained elastic fibers, [3H]-valine-labeled insoluble elastin): 2% FBS
Source text: Human aortic SMCs (AoSMCs) were propagated from small fragments of aortic media collected from autopsy. Guidelines for the protection of human subjects of the US Department of Health and Human Services and of the Declaration of Helsinki were followed in obtaining tissues for this investigation. Cells migrating from the cultured explants of aortic media were routinely passaged (up to three times) via trypsinization using 0.2% trypsin-0.02% EDTA, and were maintained in DMEM supplemented with 5% FBS and 1% antibiotic-antimycotic mix. The second and third passages of cells that migrated from the original explants of aortic media were routinely probed with antibodies recognizing the SMC-specific α-actin to monitor the preservation of the SMC phenotype. All cells were initially plated at 100,000 cells per dish for immediate confluency so they would begin extracellular matrix production. The cell cultures committed to particular experiments were then transferred to DMEM containing either 2% FBS or to serum-free medium before initiation of particular treatments.
At the end of treatments, confluent cultures of AoSMCs were fixed in cold 100% methanol at −20° C. for 30 minutes, and blocked with 1% normal goat serum for 1 hour. The cultures were then incubated for 1 hour with 10 μg/mL polyclonal antibodies to tropoelastin and/or with 10 μg/mL monoclonal antibody to SMC-specific α-actin. All cultures were then incubated for another hour with the respective fluorescein-conjugated secondary antibodies (fluorescein-conjugated goat anti-rabbit or anti-mouse). Nuclei were counterstained with red-fluorescent propidium iodide or blue-fluorescent DAPI. The cultures were then mounted in ethanol and examined using a microscope (Eclipse E1000; Nikon Instruments, Inc., Melville, N.Y.) attached to a cooled CCD camera (Retiga EX; QImaging Corp., Vancouver, BC, Canada) and a computer-generated morphometric analysis system (Image-Pro Plus software; Media Cybernetics, Inc., Bethesda, Md.). In each analyzed group, 50 low-power fields from three separate cultures were analyzed, and the areas occupied by immunodetectable elastic fibers were expressed as a percentage of the entire analyzed field.

tropoelastin mRNA = assay: RT-PCR assay of tropoelastin mRNA; assay type: cell-based, human; conditions: 10 nmol/L insulin; for effect of inhibitor on insulin-induced up-regulation of tropoelastin mRNA: pretreated 30 minutes and maintained with inhibitor
Experimental: At the end of the treatments, total RNA was extracted from quadruplicate cultures in each experimental group using the RNEASY® (RNA isolation) Mini Kit. One microgram total RNA from each sample was added to one-step RT-PCR (One-Step RT-PCR Kit; Qiagen, Inc.). The reactions were set up in a total volume of 25 μL. The reverse transcription step was performed for elastin and 18S ribosomal RNA reactions at 50° C. for 30 minutes, followed by 15 minutes at 95° C. The elastin PCR reaction using sense primer 5′[…]-3′ (SEQ ID NO 1) and antisense primer 5′[…]3′ (SEQ ID NO 2). The products were analyzed using ethidium bromide staining and densitometry-based image analysis using an optical system (Gel Doc 1000; Bio-Rad Laboratories, Inc., Hercules, Calif.). The amount of tropoelastin mRNA was standardized relative to the amount of 18S ribosomal RNA and expressed as percentage of control values.

S-Gal/EBP = assay: Association of tropoelastin with S-Gal/EBP chaperone (Western blot, co-immunoprecipitation, double immunostaining); assay type: cell-based, human
Experimental: Cultures fixed for 30 minutes in cold 100% methanol were then blocked with 1% glycine for 15 minutes, followed by 2% bovine serum albumin with 0.1% Triton X-100 for another hour at room temperature. They were finally exposed for 1 hour to the mixture of 5 μg/mL polyclonal anti-S-Gal/EBP and 5 μg/mL monoclonal anti-tropoelastin antibodies. All cultures were then incubated for another hour with the mixture of fluorescein-conjugated and rhodamine-conjugated secondary antibodies. Nuclei were counterstained with DAPI. At the end of all treatments, cells from quadruplicate cultures in each experimental group were lysed using NP40 cell lysis buffer (Invitrogen Corp.). Thirty micrograms of protein extracts from each sample was suspended in standard sample buffer, resolved on 4% to 12% gradient SDS-PAGE gels, transferred to nitrocellulose membranes, and subjected to Western blotting using antibodies. At the end of indicated treatments, the cultured cells were lysed as described, and 300 μL aliquots of cell extracts containing […] were incubated at 4° C. for 3 hours with the aliquots of protein G bound DYNABEADS® (Invitrogen Corp.) that were conjugated with either rabbit polyclonal anti-tropoelastin, goat polyclonal anti-Glut10, or rabbit polyclonal anti-S-Gal antibodies. The beads carrying the final immunoprecipitation products were then washed with PBS, resuspended in sample buffer, and boiled for 5 minutes. The released proteins were then resolved on SDS-PAGE gel and subjected to Western blotting using indicated antibodies.

tropoelastin = assay: Metabolically labeled tropoelastin in cell extracts and conditioned media (secretion); assay type: cell-based, human; conditions: 1-hour preincubation with LY294002, 10 nmol/L insulin
Experimental: Cells were plated in 35-mm dishes at a density of 100,000 cells per dish and were grown to confluency. Two microcuries [3H]-valine per milliliter fresh medium supplemented with 2% FBS was added 2 hours before the indicated treatments. At the end of each experiment, the conditioned medium was collected and subjected to immunoprecipitation using anti-tropoelastin antibody. The cell layers were washed with PBS and incubated using radioimmunoprecipitation lysis buffer for 10 minutes on ice. After centrifugation, the supernatants were collected and subjected to immunoprecipitation using anti-tropoelastin antibody. […] Final results (counts per minute) reflecting the total amount of [3H]-valine-labeled insoluble elastin in individual cultures were normalized per their DNA contents (assessed using the Qiagen […] isolation) Tissue Kit) and expressed as percentage of control values. At the end of all treatments, cells from quadruplicate cultures in each experimental group were lysed using NP40 cell lysis buffer (Invitrogen Corp.). Thirty micrograms of protein extracts from each sample was suspended in standard sample buffer, resolved on 4% to 12% gradient SDS-PAGE gels, transferred to nitrocellulose membranes, and subjected to Western blotting using antibodies. At the end of indicated treatments, the cultured cells were lysed as described, and 300 μL aliquots of cell extracts containing […] were incubated at 4° C. for 3 hours with the aliquots of protein G bound DYNABEADS® (Invitrogen Corp.) that were conjugated with either rabbit polyclonal anti-tropoelastin, goat polyclonal anti-Glut10, or rabbit polyclonal anti-S-Gal antibodies. The beads carrying the final immunoprecipitation products were then washed with PBS, resuspended in sample buffer, and boiled for 5 minutes. The released proteins were then resolved on SDS-PAGE gel and subjected to Western blotting using indicated antibodies.

FoxO1 = FoxO1 binding to elastin gene promoter DNA probe (FRE) on DYNABEADS; assay type: cell-based, human; conditions: AoSMCs treated 30 minutes with 10 nmol/L insulin, or preincubated with LY294002
Experimental: Cells were then scraped, and their nuclear extracts were pre-pared using an isolation kit (Active Motif, Inc.). […] The equal molar amounts of both single-stranded DNA oligonucleotides were annealed in Tris-EDTA buffer (10 mmol/L Tris-HCl, 1 mmol/L EDTA (pH 8.0)) to form the double-stranded DNA probe. […] All preparations were subsequently incubated for 2 hours in 200 μL binding buffer (50 mmol/L KCl, 10% glycerol, 20 mmol/L HEPES (pH 7.9), 1 mmol/L MgCl2, 1 mmol/L DTT, 0.1 μg poly(DI-DC) (polydeoxyinosinic-deoxycytidylic), and proteinase inhibitors). After binding, the beads were washed four times in the same binding buffer, without poly(DI-DC). The bound proteins were resolved using 8% SDS-PAGE and probed using Western blotting with the anti-FoxO1 monoclonal antibody.

[2] = 10 nmol/L IGF-1, 24-hour AoSMC cultures
[3] = 24-hour AoSMC cultures, 10 nmol/L insulin

Compound: COc1ccc(CNc2nc(N(CCO)CCO)nc3c2ncn3C(C)C)cc1 [CVT313]
- effect of cdk-2 inhibition on elastogenic effect of IGF-1 [1, 2]: abolished the final elastogenic effect
- effect of cdk-2 inhibition on elastogenic effect of insulin ([1]; 10 nmol/L insulin, 24-hour AoSMC cultures): did not diminish the elastogenic effect; also recorded: still exhibited heightened deposition of elastic fibers

Compound: COc1cc([C@@H]2c3cc4c(cc3[C@H](O)[C@H]3COC(=O)[C@@H]23)OCO4)cc(OC)c1OC [picropodophyllin]
- effect of inhibitor on insulin-induced up-regulation of tropoelastin mRNA (tropoelastin mRNA): did not inhibit
- effect of inhibitor on elastogenic effects of IGF-1 [1]: also eliminated

Compound: OC[C@H]1O[C@@H](n2cnc3cc(Cl)c(Cl)cc32)[C@H](O)[C@@H]1O [dichloro-benzimidazole riboside, dichlorobenzimidazole riboside]
- effect of transcription inhibitor on insulin-induced up-regulation of tropoelastin mRNA (tropoelastin mRNA; pretreatment with 50 μmol/L inhibitor): completely abolished

Compound: CC(C)(C)c1cc(C=C(C#N)C#N)cc(Br)c1O [AG1024]
- effect of inhibitor on insulin-induced up-regulation of tropoelastin mRNA (tropoelastin mRNA): abrogated
- effect of inhibitor on elastogenic effects of insulin (immunostained elastic fibers, [3H]-valine-labeled insoluble elastin) [1, 3]: eliminated the elastogenic effects

Compound: O=c1cc(N2CCOCC2)oc2c(-c3ccccc3)cccc12 [LY294002]
- insulin-induced tropoelastin/S-Gal/EBP co-localization in cells preincubated with inhibitor (S-Gal/EBP; LY294002 preincubation (data not shown)): could not induce such tropoelastin/S-Gal/EBP co-localization
- effect of PI3K inhibitor on insulin-induced S-Gal/EBP coimmunoprecipitation (S-Gal/EBP; pretreated 30 minutes with PI3K inhibitor): could not be induced; also recorded: could not induce the same effect
- effect of PI3K inhibition on insulin-induced changes in tropoelastin levels (tropoelastin): could not be observed
- effect of inhibitor on insulin-induced up-regulation of tropoelastin mRNA (tropoelastin mRNA): abrogated
- binding of FoxO1 from nuclear extracts to elastin promoter FRE DNA probe (FoxO1): bound abundant FoxO1 proteins
- effect of inhibitor on elastogenic effects of IGF-1 [1]: abolished the elastogenic effects; also recorded: also eliminated
- effect of inhibitor on elastogenic effects of insulin (immunostained elastic fibers, [3H]-valine-labeled insoluble elastin) [1, 3]: eliminated the elastogenic effects

Compound: IGF-1
- elastogenic effect of IGF-1 [1, 2]: elastogenic effects
